Seven compounds from patent US20230416293A1, “SYNTHESIS OF [18F]-LABELED THYMIDINE ANALOGUES” (UNIVERSITY OF SOUTHERN CALIFORNIA, priority 2020, published 2023) can be followed below.

The nature of data set [1]: 1-octanol/PBS partition coefficient (Log P). The format is physicochemical. To be noted: for Partition coefficients of 1-octanol/PBS: room temperature, PBS pH 7.4, quintuplicate.
The next data set concerns MDA-MB-231 tumor. Kind of data set: microPET imaging of subcutaneous MDA-MB-231 tumor-bearing nude mice. Conditions: MDA-MB-231 tumor model; for tumor uptake: intravenous, n=3. The format is in vivo.
For a further data set, the system named is U-87 MG tumor. Kind of data set: microPET imaging of subcutaneous U-87 MG tumor-bearing nude mice. Format: in vivo. To be noted: U-87 MG tumor model; for tumor uptake: intravenous, n=3.
The mark [2] stands for this setting: 1-octanol/PBS pH 7.4, room temperature, quintuplicate.

Protocol for MDA-MB-231 tumor: (§1) After the intravenous injection of [^18F]FMAU at 1 h and 2 h, the mice (n=3/group) were scanned through a microPET imaging system. […] For microPET scans, radioactivity accumulations in tumors and major tissues/organs were quantified by calculating the ROIs that comprised the entire organ on the coronal images.
(§2) Tumor cells were cultured in Dulbecco's Modified Eagle Medium (DMEM) supplemented with 10% fetal bovine serum at 37° C. in a humidified incubator containing 5% CO2.
(§3) Both MDA-MB-231 and U-87 MG tumor xenograft models (n=3/group) were generated by subcutaneous injection of 5×10^6 tumor cells into the front right flank of female athymic nude mice (4-6 weeks old) purchased from Envigo Inc., Indianapolis, IN. The tumors were permitted to grow 2-4 weeks until approximate 0.6-0.8 cm^3 in volume.
(§4) MicroPET scans were carried out using a rodent scanner (Siemens Inveon microPET scanner, Siemens Medical Solutions). About 7.4 MBq (200 μCi) of [^18F]FMAU was injected through the tail vein under isoflurane anesthesia condition. Five-minute static scans were obtained at 60- and 120-min post-injection (p.i.). The 3D-OSEM algorithm was applied for image reconstruction. For each microPET scan, the regions of interest (ROIs) were drawn over tumor, muscle, liver, and kidneys on the decay-corrected whole-body coronal images. The tumor-to-muscle (T/M), tumor-to-liver (T/L), and tumor-to-kidney (T/K) ratios were then calculated.
Protocol for U-87 MG tumor: as §1, §2, §3, §4

One may read the Log P as the decadic logarithm of the partition coefficient of the neutral form, usually between octanol and water. Read a high Log P as a more lipophilic compound. As to `O=c1ccn([C@@H]2O[C@H](CO)[C@@H](O)[C@@H]2[18F])c(=O)[nH]1` [[^18F]FAU, 2′-Deoxy-2′-[^18F]fluoro-1-β-D-arabinofuranosyluracil], in data set [1] (setting [2]), the “Log P” value is −0.943±0.041. The “Partition coefficients of 1-octanol/PBS” value in data set [1] is 0.114 ± 0.011.
What is called logP is the decadic logarithm of the partition coefficient of the neutral form, usually between octanol and water. Low values mean lower lipophilicity, high ones higher lipophilicity. In turn, `O=c1[nH]c(=O)n([C@@H]2O[C@H](CO)[C@@H](O)[C@@H]2F)cc1Br` [[^18F]FBAU, 1-(2-deoxy-2-fluoro-β-D-arabinofuranosyl)-5-bromouracil] displayed a logP in data set [1] (setting [2]) of -0.367 ± 0.025.
Consider `O=c1[nH]c(=O)n([C@@H]2O[C@H](CO)[C@@H](O)[C@@H]2[18F])cc1Cl` [[^18F]FCAU, 2′-deoxy-2′-[^18F]fluoro-5-chloro-1-β-D-arabinofuranosyluracil], for which the log partition coefficient (Log P) in data set [1] (setting [2]) is given as −0.477±0.030. Further, the “Partition coefficients of 1-octanol/PBS” value in data set [1] came to 0.334 ± 0.022.
Taken in the same sequence, the figures for `CCc1cn([C@@H]2O[C@H](CO)[C@@H](O)[C@@H]2[18F])c(=O)[nH]c1=O` [[^18F]FEAU, 2′-deoxy-2′-[^18F]fluoro-5-ethyl-1-β-D-arabinofuranosyluracil] were −0.077±0.018 and 0.837 ± 0.035.
With `O=c1[nH]c(=O)n([C@@H]2O[C@H](CO)[C@@H](O)[C@@H]2[18F])cc1F` [[^18F]FFAU, 2′-deoxy-2′-[^18F]fluoro-5-fluoro-1-β-D-arabinofuranosyluracil], the “Log P” value in data set [1] (setting [2]) was −0.952±0.023. The “Partition coefficients of 1-octanol/PBS” value in data set [1] came out at 0.113 ± 0.006.
In the case of `O=c1[nH]c(=O)n([C@@H]2O[C@H](CO)[C@@H](O)[C@@H]2[18F])cc1I` [[^18F]FIAU, 2′-deoxy-2′-[^18F]fluoro-5-iodo-1-β-D-arabinofuranosyluracil], in data set [1] (setting [2]), the lipophilicity (Log P) is reported as −0.108±0.013. The “Partition coefficients of 1-octanol/PBS” value in data set [1] was determined as 0.780 ± 0.024.
As for `Cc1cn([C@@H]2O[C@H](CO)[C@@H](O)[C@@H]2[18F])c(=O)[nH]c1=O` [[^18F]FMAU, 2′-Deoxy-2′-[^18F]fluoro-5-methyl-1-β-D-arabinofuranosyluracil], in the data set on MDA-MB-231 tumor (1 h p.i.), the “ratio of tumor uptake to kidney uptake (T/K)” value (shortened to “ratio of tumor uptake … (T/K)”) was found to be 1.9±0.5, the “ratio of tumor uptake to liver uptake (T/L)” value (“ratio of tumor uptake … (T/L)” for short) turned out to be 2.1±0.2, the “ratio of tumor uptake to muscle uptake (T/M)” value (shortened to “ratio of tumor uptake … (T/M)”) was found to be 2.8±0.3 and the tumor uptake is on record as 6.4±0.4 % ID/g. In addition, in the data set on MDA-MB-231 tumor (2 h p.i.), the “ratio of tumor uptake … (T/K)” value was found to be 1.9±0.5, the “ratio of tumor uptake … (T/L)” value was found to be 2.5±0.2, the “ratio of tumor uptake … (T/M)” value is 3.2±0.7 and the tumor uptake is 7.2±0.6 % ID/g. Further, the lipophilicity (Log P) in data set [1] (setting [2]) is −0.577±0.003. In addition, the “Partition coefficients of 1-octanol/PBS” value in data set [1] is on record as 0.265 ± 0.002. In the data set on U-87 MG tumor (1 h p.i.), the “ratio of tumor uptake … (T/K)” value was determined as 1.4±0.2, the “ratio of tumor uptake … (T/L)” value stood at 1.4±0.3, the “ratio of tumor uptake … (T/M)” value turned out to be 1.8±0.2 and the tumor uptake came to 6.0±0.2 % ID/g. In the data set with U-87 MG tumor (2 h p.i.), the “ratio of tumor uptake … (T/K)” value stood at 1.3±0.1, the “ratio of tumor uptake … (T/L)” value is on record as 1.5±0.3, the “ratio of tumor uptake … (T/M)” value stood at 1.9±0.3 and the tumor uptake worked out at 5.6±0.4 % ID/g.
